The values below come from PMC9253272 (Frontiers in Pharmacology, 2022).

Data set [1] relates to BV-2 microglial cells. Briefly: LPS-induced nitrite release in BV-2 microglial cells (Griess reagent). The class given is cell-based. The settings on record: BV-2 cells; for IC50: pre-incubation 1 h (0.03-2.0 mM), then LPS 24 h.
Protocol: (§1) In brief, 50 μl cell supernatants were mixed with 50 μl Griess regent in 96-well-plate and reacted for about 5–10 min at room temperature. Read plate at 540 nm by a Microplate reader (Infinite M200, Molecular Device).
Supernatants were collected for nitrite analysis.
The test system of data set [2] is AMPK. Briefly: AMPK phosphorylation (p-AMPK Thr 172) by immunoblot in BV-2 microglial cells. The class given is cell-based. The following applies: for onset time of AMPK activation: 1 mM, time course; for concentration at which activation of AMPK (p-AMPK) was observed (lowest effective): 1 h incubation. As to the method: When reached 80% confluence, cells were seeded in 12-well or 6-well plates to perform further experiments.

Data set [3] deals with BV-2 microglial cells. The settings on record: BV-2 cells, 1 mM, 1 h pre-incubation, LPS 200 ng/ml.
Protocol: as §1
Data were presented as mean ± SD, statistical analysis was performed with one-way ANOVA followed by a Dunnett’s post hoc tests, ^∗∗ p < 0.01 versus LPS group; ^## p < 0.01, versus LPS with SHY-treated group. […] Results are expressed as mean ± SD (n = 5). Data are presented as mean ± SD, statistical analysis was performed with one-way ANOVA, followed by a Dunnett’s post hoc tests, ^∗∗ p < 0.01 versus LPS group; ^# p < 0.05, versus LPS with SHY-treated group.
Data set [4] deals with AMPK. The following applies: initial screening; ref Zhen et al., 2019; cited from earlier work.
For another data set, the system named is tMCAO rats. The settings on record: 50 mg/kg/day i.p., four weeks after tMCAO.
For data set [5] the following is noted: rat plasma, 50 mg/kg i.p.
Data set [6] deals with rat primary cortical neurons. The following applies: microglia treated with 1 mM, LPS 24 h; neurons 24 h.
Protocol: Primary rat cortical microglia cells were prepared from newborn to 2–3 days-old SD strains. […] The supernatant was discarded after centrifuging at 1,100 × rpm for 10 min, the pellet was resuspended, and cortices were fully dissociated by pipetting, the cell suspension was filtered through a 70 μm mesh and transferred into a 75-cm^2 culture flask with poly-L-lysine (PLL, Sigma-Aldrich) coated. Flasks were incubated at 37°C and 5% CO2, and half of the culture media were changed every 2 days, after 2 weeks of culture, primary microglia were harvested by shaking the flask for 2 h at 200 × rpm, and then seeded into new plates pre-coated with PLL. […]
The neuron culture medium was collected and LDH was measured by the LDH assay kit (BioAssay Systems) according to the manufacturer’s instructions.
Data were presented as mean ± SD, statistical analysis was performed with one-way ANOVA followed by a Dunnett’s post hoc tests, ^∗∗ p < 0.01 versus LPS group; ^## p < 0.01, versus LPS with SHY-treated group. […] Results are expressed as mean ± SD (n = 5). […] Cell viability was analyzed by MTT assay, results are expressed as mean ± SD (n = 8). […]
Data set [7] has as its system BV-2 microglial cells. Briefly: Cellular pharmacokinetics: uptake of metformin into BV-2 microglia (LC-MS/MS). The following applies: BV-2 cells.
Description: (§2) The Michaelis-Menten equation with one saturable component was fit to the corrected uptake rate and the estimated Km and Vmax values are presented.
Data set [8] deals with primary rat cortical neurons. Briefly: Oxygen and glucose deprivation (OGD) of primary cortical neurons, MTT viability. The class given is cell-based. The settings on record: 0.5 and 1 mM, 24 h pre-treatment, OGD 3 h, reperfusion 24 h.
Protocol: The culture medium was replenished with Neurobasal medium (Life Technologies) supplemented with 2% B27 (Life Technologies) 5 h after isolation, and half of the culture media was changed every 2 days, after 6 days of culture, and the neurons were used for further experiments.
Cells were transferred to a hypoxia incubator with 1% oxygen and 5% CO2 for 3 h. […] Control cells were not submitted to OGD and were maintained under normal conditions.
A short description of another data set: in vitro. The following applies: mouse, BV-2 microglial cells.
Data set [9] in a line: in vivo. The settings on record: male, Sprague-Dawley, rat, plasma, ip, 50 mg/kg.
Data set [10] in a line: in vivo. The following applies: male, Sprague-Dawley, rat, brain, 50 mg/kg.
Data set [11] has as its system AMPK. The arrangement: method as in Ma et al., 2014. The settings on record: ref Ma et al., 2014; cited from earlier work.
Where [12] appears, read: rat brain, metformin measured, 50 mg/kg i.p.
The mark [13] stands for this setting: 15 min uptake, Michaelis-Menten fit.

Counter-ions that a name gives are not always drawn. Like-named read-outs stand apart in the source and are kept apart here.

Description for in vitro: as §2

As to `c1cc(-c2cnn3cc(-c4ccc(OCCN5CCCCC5)cc4)cnc23)ccn1` [compound C], in the data set with BV-2 microglial cells [1] (compound C 10 μM 1 h pre-incubation, SHY-01 1 mM, LPS 200 ng/ml), the “effect on the inhibitory effect of SHY-01 on LPS-induced nitrite, TNF-α and IL-1β” value is on record as “abolished”.
In the case of `CN(C)C(=N)NC(=N)N.O=C(O)[C@H](O)[C@@H](O)CO` [SHY-01, metformin threonate], in the data set on AMPK [2] (BV-2 cells, 0.3 mM, 1 h), the “p-AMPK level compared to the same concentration of metformin hydrochloride” value is given as “significantly higher”. Also, the “effect on LPS-reduced AMPK phosphorylation” value in the data set on AMPK [2] (BV-2 cells, 1 mM pre-incubation, LPS 200 ng/ml 0-4 h) is “significantly reverse”. Besides, in the data set on AMPK [2] (BV-2 cells), the “onset time of AMPK activation” value is 0.5 h and the “concentration at which activation of AMPK (p-AMPK) was observed (lowest effective)” value stood at 0.3 mM. For the same molecule, in the data set with AMPK [2] (discussion statement), the “time to activation of AMPK after treatment” value is given as at most 30 min. Moreover, the “inhibition of LPS-induced pro-inflammatory cytokine expression (TNF-α, IL-1β, iNOS) compared with metformin hydrochloride” value in the data set on BV-2 microglial cells [3] was “stronger effect”. Besides, in the data set with AMPK [4], the “potency on AMPK activation among the metformin salts screened” value was “strongest potency”. For the same molecule, in the data set with tMCAO rats, the “Rope climbing test, difference between SHY-01 and metformin hydrochloride” value is “did not differ”; the “atrophic volume of the ischemic brain versus vehicle” value was “effectively reduced”; the “body weight changes, difference between SHY-01 and metformin hydrochloride” value was “did not differ”; the “brain atrophy compared with metformin hydrochloride” value is “more potent reduction”. In the data set on tMCAO rats, the “neurologic score compared with metformin hydrochloride” value is given as “significantly better improvement” and the “spatial learning in the Morris water maze test compared with metformin hydrochloride” value is “significantly better improvement”. In the data set on BV-2 microglial cells [1], this molecule came in with a half-inhibitory concentration (IC50) of 302 µM. In addition, the “metformin concentration in the brain” value (1 h after 50 mg/kg i.p.) came to 0.32 ± 0.023 µg/g. Besides, the “metformin concentration in the brain” value (2 h after 50 mg/kg i.p.) stood at 0.25 ± 0.032 µg/g. Moreover, under setting [12], the “AUC (0−t)” value amounted to 1870 ± 230 ng·h/mL, the “AUC (0−∞)” value was 2050 ± 180 ng·h/mL, the Cmax was determined as 520 ± 110 ng/mL and the “MRT (0−t)” value worked out at 5.73 ± 0.63 h. In addition, under setting [12], the “MRT (0−∞)” value was 8.19 ± 0.66 h and the t max is recorded as 0.5 h. Moreover, in [5], the “half-life (t 1/2)” value worked out at 8.22 ± 5.52 h and the “maximum plasma concentration (Cmax)” value was 11.29 ± 3.9 ng/mL. Further, in data set [5] (metformin measured), the “AUC (0−t)” value is 11470 ± 35 ng·h/mL, the “AUC (0−∞)” value was found to be 12240 ± 40 ng·h/mL, the CLz was 4,116.73 ± 422.20 ml/hr/kg and the Cmax amounted to 11300 ± 3900 ng/mL. In [5] (metformin measured), the “MRT (0−t)” value was 2.69 ± 0.45 H, the “MRT (0−∞)” value was 5.06 ± 2.54 H, the Vz is reported as 50,055.01 ± 36,787.23 ml/kg and the “t 1/2” value came out at 8.22 ± 5.524 H. In data set [5] (metformin measured), this molecule gave a t max of 0.5 H. Further, the “LDH release of neurons in response to conditioned medium of LPS-activated microglia, versus control or metformin hydrochloride” value in [6] was “remarkably decrease”. Besides, in the data set with BV-2 microglial cells [7], the “accumulation of metformin compared with the same concentration of metformin hydrochloride” value was “more rapid”. In the data set with BV-2 microglial cells [7] (setting [13]), the “Vmax of metformin uptake” value is recorded as 9.5 ± 1.2 nmol/min/mg protein. In the data set with BV-2 microglial cells [7] (LC-MS/MS), the “intracellular metformin contents compared with metformin hydrochloride” value was “elevated intracellular metformin contents”. Also, the Km in the data set with BV-2 microglial cells [7] (read-out: Km of metformin uptake, 15 min uptake, Michaelis-Menten fit) stood at 7.2 ± 1.5 mM. In data set [8], the “OGD-induced neuronal injury (cell viability, MTT)” value was “significantly prevented”.
For `CN(C)C(=N)N=C(N)N` [metformin hydrochloride], in the data set on AMPK [2] (BV-2 cells), the “onset time of AMPK activation” value was 4 h and the “concentration at which activation of AMPK (p-AMPK) was observed (lowest effective)” value was determined as 1.0 mM. Also, the “atrophic volume of the ischemic brain versus vehicle” value with tMCAO rats was “effectively reduced”. Besides, the IC50 in the data set on BV-2 microglial cells [1] (Mus musculus) was determined as 1070 µM. In addition, the Km at 15 min in the data set “in vitro” was found to be 7.1 ± 1.7 mM. In the data set “in vivo [9]”, this molecule returned an AUC of 7170 ± 275 ng·h/mL, an AUC(0-inf) of 7170 ± 280 ng·h/mL, an AUC(0-t) of 6590 ± 270 ng·h/mL and a Cmax of 6630 ± 2100 ng/mL. In the data set “in vivo [9]”, this molecule yielded an MRT inf of 6.06 ± 1.73 h, an MRT last of 3.48 ± 0.65 h and a t max of 0.5 h. In [5] (metformin measured), the CLz was 7,068.89 ± 949.45 ml/hr/kg, the Cmax worked out at 6640 ± 2110 ng/mL and the Vz is reported as 79,683.93 ± 23,176.87 ml/kg. In “in vivo [10]” (intraperitoneal), this molecule gave a concentration at 1 h of 190 ± 32 ng/g and a concentration at 2 h of 110 ± 12 ng/g. In “in vivo [10]” (ip), this molecule registered an AUC(0-inf) of 1890 ± 80 ng·h/mL, an AUC(0-t) of 1600 ± 180 ng·h/mL, a Cmax of 320 ± 80 ng/g and an MRT inf of 12.2 ± 2.9 h. In “in vivo [10]” (ip), this molecule displayed an MRT last of 7.71 ± 0.45 h and a t max of 0.5 h. In addition, in the data set on AMPK [11], the “treatment time required to activate AMPK” value was at least 4 h. In addition, the “Vmax of metformin uptake” value with BV-2 microglial cells [7] (setting [13]) worked out at 4.6 ± 0.6 nmol/min/mg protein. Moreover, in data set [8], the “OGD-induced neuronal injury (cell viability, MTT)” value is given as “did not elicit such an effect”.
